Test results: US9327225B2, “Air cleaning filter and method for manufacturing the same” (LG Electronics Inc., priority 2012, dated 2016)

Experiments:
S. aureus = assay: Paper disc experiment (clear zone); type: cell-based, Staphylococcus aureus; settings: 24 hours, 35° C.
Method: (§1) 10^5 cfu/ml of E. coli and S. aureus were sub-cultured in a Mueller Hinton agar, respectively, and then smeared.
(§2) PVPI, ginseng extract, bronopol, PA, NS and PD were introduced to the paper disc, respectively, and left and dried for 5 to 10 minutes. The dried paper disc was put on a culture medium smeared with the E. coli and S. aureus with a sufficient interval, and cultured for 24 hours in a 35° C. incubator and then the size of clear zone was examined and the result is summarized in the following Table 2.

E. coli [1] = assay: Shaking flask method, materials in maintenance medium; type: cell-based, Escherichia coli; settings: 35° C., concentration of each material (wt %)
Method: 3. Experiment Using Shaking Flask Method
A maintenance medium produced with 1% of nutrient broth and 0.5% of NaCl and inoculated with about 10^5 cfu/ml of E. coli was prepared. Materials of PVPI, ginseng extract, bronopol, PA and NS were introduced to the medium, respectively, and reacted at 35° C., and the antibiotic effect was examined using a pour plate method after 6 hours and 24 hours had been passed.
The antibiotic effect in the Table 3 was calculated using the following equation.
Me: Cell number of maintenance medium to which each material is added
Mc: Cell number of maintenance medium to which each material is not added

[2] = test system: staphylococcus aureus (S. aureus); assay: Measurement of minimal inhibitory concentration (MIC), turbidity; type: cell-based; settings: for minimal inhibitory concentration, S. aureus: Table 1, 35° C., 14-16 hours; for S. aureus MIC value: Table 2
From the text: (§3) 1. Measurement of Minimal Inhibitory Concentration (MIC)
(§4) Polyvinylpyrrolidone iodine (hereinafter, abbreviated as “PVPI”), phthalaldehyde (hereinafter, abbreviated as “PA”), potassium disulphite (hereinafter, abbreviated as “PD”) bronopol, norspermidine (hereinafter, abbreviated as “NS), and the ginseng extract were sequentially diluted, respectively, and prepared with various concentrations to prepare MIC measurement specimens. About 10^4-5 cfu/ml of escherichia coli (E. coli) and about 10^4˜5 cfu/ml of staphylococcus aureus (S. aureus) were added to the MIC measurement specimens, respectively. The specimens were cultured at 35° C. for 14-16 hours and then the turbidity was examined, respectively.
(§5) As a comparative example, specimens to which the E. coli and the S. aureus were added to distilled water, respectively, were cultured at the same time, and the minimal inhibitory concentration of the specimens was measured with reference to specimens subsequent to the culture and the turbidity of the comparative example subsequent to the culture.

[3] = test system: escherichia coli (E. coli); assay: as above; type: cell-based; settings: for minimal inhibitory concentration, E. coli: Table 1, 35° C., 14-16 hours; for E. coli MIC value: Table 2; for MIC value of E. coli (wt %): in Table 3
From the text: as §3, §4, §5

E. coli [4] = assay: Paper disc experiment (clear zone); type: cell-based, Escherichia coli; settings: 24 hours, 35° C.
Method: as §1, §2

Compound	S. aureus clear zone (mm) (S. aureus)	Antibiotic effect after 6 hours (E. coli [1])	Antibiotic effect after 24 hours (E. coli [1])	minimal inhibitory concentration, S. aureus [2]	S. aureus MIC value [2]	minimal inhibitory concentration, E. coli [3]	E. coli MIC value [3]	MIC value of E. coli (wt %) [3]	E. coli clear zone (mm) (E. coli [4])
Polyvinylpyrrolidone iodine [PVPI, reference compound]	30 mm	99.99%	100%	1.875% weight %	1.875% weight %	1.875% weight %	1.875% weight %	1.875% wt %	12 mm
O=[N+]([O-])C(Br)(CO)CO [Bronopol, bronopol, reference compound]	10 mm	99.99%	100%	Less than 0.0009% weight %	0.156% weight %	Less than 0.0009% weight %	0.156% weight %	0.156% wt %	10 mm
O=Cc1ccccc1C=O [PA, phthalaldehyde]	11 mm	99.99%	100%	0.156% weight %	< 0.0009% weight %	0.156% weight %	< 0.0009% weight %	< 0.0009% wt %	10 mm
NCCCNCCCN [NS, norspermidine]	23 mm	99.99%	100%	0.078% weight %	0.078% weight %	0.312% weight %	0.312% weight %	0.312% wt %	14 mm
O=S([O-])OS(=O)[O-].[K+].[K+] [PD, potassium disulphite]	32 mm			0.078% weight %	0.078% weight %	0.156% weight %	0.156% weight %		12 mm
